Test systems include A549; CAKI-1; COLO 205; DU-145; HL-60; HOP-92; HT-29; Hs-578T; K562; KM12; LOX IMVI; MCF7; Malme-3M; OVCAR-8; RPMI-8226; SF-295; SK-MEL-5; SK-OV-3; UO-31; SR.
Common to all, as to experiment: NCI-60 cell line screen, 48 h

This note sets out measurements from ChEMBL document CHEMBL1201862, “PubChem BioAssay data set” (2004).

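Five concentrations, 48 hours, 96-well plates. GI50 marks 50% less growth.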 Calls of active or inactive are those of the source. No stated cut-off is given here; in the data, active = GI50 up to about 1.1 µM and inactive = higher.

Take `CN(C)c1ccc(/N=N/c2ccncc2)cc1`: the GI50 was > 100 µM (inactive) in the experiment with A549; > 100 µM (inactive) in the experiment with CAKI-1; 56.6 µM (inactive) in the experiment with COLO 205; > 100 µM (inactive) with DU-145; > 100 µM (inactive) in the experiment with HL-60; 17.6 µM (inactive) in the experiment with HOP-92. Besides, the GI50 in the experiment with HT-29 was 95.1 µM (inactive); in the experiment with Hs-578T it was > 100 µM (inactive); with K562 it was 43.5 µM (inactive); in the experiment with KM12, > 100 µM (inactive); in the experiment with LOX IMVI, 93.1 µM (inactive); with MCF7 it was 40.8 µM (inactive). For the same compound, the GI50 in the experiment with Malme-3M was > 100 µM (inactive); with OVCAR-8 it was > 100 µM (inactive); in the experiment with RPMI-8226, 47.1 µM (inactive); in the experiment on SF-295, > 100 µM (inactive); in the experiment with SK-MEL-5 it was 67 µM (inactive); in the experiment on SK-OV-3, 40 µM (inactive). Besides, in the experiment on UO-31, the GI50 is > 100 µM (inactive).

With `N#C/C(N)=C(C#N)/N=C/NCCO`, the GI50 in the experiment on A549, in the experiment on CAKI-1, with COLO 205, in the experiment on DU-145, with HL-60 and with HT-29 was > 100 µM (inactive) throughout. Also, the GI50 in the experiment on Hs-578T, in the experiment on K562, in the experiment on KM12, with LOX IMVI, in the experiment on MCF7 and with Malme-3M was > 100 µM (inactive) throughout. For the same compound, the GI50 with OVCAR-8, with RPMI-8226, in the experiment with SF-295, with SK-MEL-5, with SK-OV-3 and in the experiment on SR was > 100 µM (inactive) in each case. Also, the GI50 in the experiment with UO-31 was > 100 µM (inactive).

For `Cc1ccc(/N=N/C(=N\c2ccc(F)cc2)c2ccc(N(CCC#N)CCC#N)cc2)cc1`, the GI50 in the experiment with A549 is 45.9 µM (inactive); in the experiment on CAKI-1 it was > 100 µM (inactive); in the experiment on COLO 205 it was 64.4 µM (inactive); in the experiment with DU-145 it was > 100 µM (inactive); with HOP-92 it was > 100 µM (inactive); in the experiment with HT-29, > 100 µM (inactive). Moreover, the GI50 in the experiment with Hs-578T was 53.7 µM (inactive); in the experiment on K562 it was > 100 µM (inactive); in the experiment on KM12, 33.3 µM (inactive); in the experiment on MCF7 it was 42.5 µM (inactive); in the experiment with OVCAR-8, 77.4 µM (inactive); in the experiment with RPMI-8226, 74.6 µM (inactive). Also, the GI50 was > 100 µM (inactive) in the experiment on SF-295; 44.1 µM (inactive) with SK-MEL-5; > 100 µM (inactive) with SK-OV-3; 74.3 µM (inactive) in the experiment on SR; > 100 µM (inactive) in the experiment on UO-31.

As for `COc1cc2cccc(N)c2cc1OC`, the GI50 in the experiment on A549, in the experiment with CAKI-1, with COLO 205, in the experiment with DU-145, in the experiment with HL-60 and in the experiment on HT-29 was > 100 µM (inactive) each time. For the same compound, the GI50 with Hs-578T, in the experiment on K562, in the experiment with KM12, with LOX IMVI, with MCF7 and with Malme-3M was > 100 µM (inactive) in each case. For the same compound, the GI50 in the experiment with OVCAR-8 is > 100 µM (inactive); with RPMI-8226, > 100 µM (inactive); in the experiment with SF-295, > 100 µM (inactive); in the experiment with SK-MEL-5, > 100 µM (inactive); in the experiment on SK-OV-3, > 100 µM (inactive); in the experiment with SR, > 45.3 µM (inactive). For the same compound, the GI50 with UO-31 was > 100 µM (inactive).

As to `O=C(O)C1CCCCC1C(=O)Nc1nc2ccccc2[nH]1` (stereo not given), the GI50 in the experiment on A549, in the experiment on CAKI-1, with COLO 205, in the experiment on DU-145, with HOP-92 and in the experiment with HT-29 was > 100 µM (inactive) in each case. In addition, the GI50 in the experiment on Hs-578T, with KM12, in the experiment with LOX IMVI, with MCF7, with Malme-3M and in the experiment with OVCAR-8 was > 100 µM (inactive) throughout. Also, the GI50 with RPMI-8226, with SF-295, with SK-MEL-5, in the experiment on SK-OV-3, in the experiment with SR and in the experiment with UO-31 was > 100 µM (inactive) in each case.

As for `CC1(C)CN(c2ccccc2)C(=O)C1OC(=O)[C@@]1(C)C[C@@H]2C=C[C@H]1C2` (stereo not given in full), the GI50 in the experiment with A549 was 29.6 µM (inactive); with CAKI-1, 26.5 µM (inactive); in the experiment on COLO 205, 19.1 µM (inactive); with DU-145, 87.5 µM (inactive); in the experiment with HL-60, 20.3 µM (inactive); with HOP-92, 27.9 µM (inactive). Moreover, the GI50 was 12.5 µM (inactive) in the experiment with HT-29; 31 µM (inactive) with Hs-578T; 6.15 µM (inactive) in the experiment with K562; 21.7 µM (inactive) in the experiment on KM12; 18.9 µM (inactive) in the experiment with LOX IMVI; 24.4 µM (inactive) in the experiment with MCF7. For the same compound, the GI50 was 10.9 µM (inactive) in the experiment with Malme-3M; 32.2 µM (inactive) with OVCAR-8; 12.3 µM (inactive) in the experiment on RPMI-8226; 24.5 µM (inactive) with SF-295; 14.9 µM (inactive) in the experiment on SK-MEL-5; 35.1 µM (inactive) with SK-OV-3. The GI50 with UO-31 was 13.7 µM (inactive).

Regarding `c1ccc([P+](c2ccccc2)(c2ccccc2)c2ccc([P+](c3ccccc3)(c3ccccc3)c3ccccc3)c3ccccc23)cc1`, the GI50 in the experiment on A549 was 70.1 µM (inactive); in the experiment on CAKI-1, > 100 µM (inactive); with COLO 205 it was 52.7 µM (inactive); in the experiment with DU-145, 67.3 µM (inactive); in the experiment on HL-60, 41.6 µM (inactive); with HT-29 it was 79.4 µM (inactive). Also, the GI50 with Hs-578T is 47.8 µM (inactive); in the experiment on K562 it was 29.6 µM (inactive); in the experiment on KM12, 34.4 µM (inactive); in the experiment on LOX IMVI it was 30.5 µM (inactive); in the experiment with MCF7, 47 µM (inactive); with Malme-3M it was > 100 µM (inactive). For the same compound, the GI50 in the experiment on OVCAR-8 was 88.1 µM (inactive); with RPMI-8226 it was 57.1 µM (inactive); in the experiment on SF-295, > 100 µM (inactive); in the experiment on SK-MEL-5, 62.1 µM (inactive); in the experiment on SK-OV-3 it was > 100 µM (inactive); with SR, < 0.01 µM (active). The GI50 in the experiment with UO-31 was > 100 µM (inactive).

On to `CCOC(=O)CC(N1CC1)N1CC1`, for which the GI50 in the experiment on A549, with CAKI-1, in the experiment with COLO 205, in the experiment with DU-145, with HL-60 and in the experiment on HT-29 was > 10 µM (inactive) in each case. For the same compound, the GI50 in the experiment on Hs-578T, in the experiment with K562, in the experiment on KM12, in the experiment on LOX IMVI, in the experiment on MCF7 and with Malme-3M was > 10 µM (inactive) throughout. In addition, the GI50 in the experiment on RPMI-8226, in the experiment with SF-295, in the experiment on SK-MEL-5, in the experiment on SK-OV-3, in the experiment on SR and in the experiment with UO-31 was > 10 µM (inactive) throughout.

For `O=C(CCc1ccccc1)n1cccc1CO`, the GI50 in the experiment with A549, in the experiment with CAKI-1, with COLO 205, in the experiment on DU-145, in the experiment with HL-60 and in the experiment on HT-29 was > 100 µM (inactive) throughout. Moreover, the GI50 with Hs-578T is 60.3 µM (inactive); in the experiment on K562 it was > 100 µM (inactive); in the experiment on KM12, > 100 µM (inactive); in the experiment on LOX IMVI it was > 100 µM (inactive); with MCF7, > 100 µM (inactive); in the experiment on Malme-3M, > 100 µM (inactive). Also, the GI50 with OVCAR-8, in the experiment with RPMI-8226, with SF-295, with SK-MEL-5, in the experiment on SK-OV-3 and with SR was > 100 µM (inactive) throughout. Besides, in the experiment with UO-31, the GI50 was > 100 µM (inactive).

`Nn1c(CCCCCCCCc2nnc(COc3ccccc3)n2N)nnc1COc1ccccc1`: the GI50 in the experiment with A549, in the experiment with CAKI-1, in the experiment on COLO 205, with DU-145, in the experiment on HL-60 and in the experiment with HOP-92 was > 100 µM (inactive) throughout. Moreover, the GI50 in the experiment with HT-29, with Hs-578T, in the experiment on K562, in the experiment with KM12, with LOX IMVI and in the experiment with MCF7 was > 100 µM (inactive) in each case. The GI50 with Malme-3M, in the experiment on OVCAR-8, in the experiment on RPMI-8226, in the experiment on SF-295, in the experiment with SK-MEL-5 and in the experiment with SK-OV-3 was > 100 µM (inactive) in each case. In addition, the GI50 in the experiment on UO-31 is > 100 µM (inactive).

On to `COc1cc(/C=C/C(=O)Oc2ccccc2)ccc1C(=O)O/C=C/c1ccccc1`, for which the GI50 in the experiment on A549, in the experiment on CAKI-1, with COLO 205, in the experiment with DU-145, in the experiment on HL-60 and in the experiment on HOP-92 was > 100 µM (inactive) in each case. Further, the GI50 with HT-29, with Hs-578T, with K562, with KM12, in the experiment with LOX IMVI and with MCF7 was > 100 µM (inactive) in each case. Moreover, the GI50 in the experiment on Malme-3M, in the experiment on OVCAR-8, with RPMI-8226, with SF-295, in the experiment with SK-MEL-5 and in the experiment with SK-OV-3 was > 100 µM (inactive) throughout. The GI50 with UO-31 is > 100 µM (inactive).
